Measurements published in patent publication US20040176350A1, “Carbapenem compound” (priority 2001, published 2004).

Experiment: oral absorption test in rats: plasma concentration of meropenem produced by hydrolysis, by HPLC
Assay type: in vivo
Settings: 20 mg/kg oral, cilastatin 50 mg/kg pre-administered
Description: An enzyme inhibitor (cilastatin) (50 mg/kg) was pre-administered to rats (3 per group) and the compound of the present invention (compound of Example 1, 20 mg/kg) was orally administered. The plasma concentration of meropenem produced by hydrolysis was measure at 0.125, 0.25, 0.5, 1.0, 1.5, 2.0 and 3.0 hr by HPLC and the area under plasma concentration-time curve (AUC) was determined.

In the case of `CCCC(=O)OCOC(=O)N1C[C@@H](SC2=C(C(=O)OCOC(=O)C(C)(C)C)N3C(=O)[C@H]([C@@H](C)O)[C@H]3[C@H]2C)C[C@H]1C(=O)N(C)C` [Example 1, pivaloyloxymethyl (1R,5S,6S)-2-[(3S,5S)-(5-N,N-dimethylaminocarbonyl-1-butyryloxymethyloxycarbonyl)-pyrrolidin-3-ylthio]-6-[(1R)-1-hydroxyethyl]-1-methylcarbapen-2-em-3-carboxylate], the AUC0-3 hr (area under plasma concentration-time curve of meropenem) was 5060 ng·h/mL, the Average plasma concentration (meropenem in plasma at 0.125 hr) was 0.62 µg/mL and the Average plasma concentration (meropenem in plasma at 0.25 hr) was 1.31 µg/mL. It also gave an Average plasma concentration (meropenem in plasma at 0.5 hr) of 2.31 µg/mL, an Average plasma concentration (meropenem in plasma at 1.0 hr) of 2.59 µg/mL and an Average plasma concentration (meropenem in plasma at 1.5 hr) of 2.27 µg/mL. It also gave an Average plasma concentration (meropenem in plasma at 2.0 hr) of 1.56 µg/mL and an Average plasma concentration (meropenem in plasma at 3.0 hr) of 0.55 µg/mL.
